{"source": "patent US20180243421A1", "about": "“IMMUNOSTIMULATING AGENT” (AJINOMOTO CO., INC., priority 2015, published 2018)", "key": {"[1]": {"test_system": "anti-OVA-specific IgE antibody", "details": "mouse, in vivo", "experimental": "The serum sample obtained in Example 1 was measured for an anti-OVA-specific IgE antibody. The measurement method of the anti-OVA-specific IgE antibody in Example 3 and Examples 6, 9 is as follows.\nMeasurement Method of anti-OVA-specific IgE Antibody\nDS mouse IgE ELISA (OVA) kit manufactured by DS Pharma Biomedical Co., Ltd. was used. The protocol is briefly shown below.\nThe serum sample and a standard reagent for drawing an analytical curve are diluted with a buffer and, after stirring, left standing at room temperature for 10 min. The sample and the standard solution are added to a plate bound with an IgE capture antibody in advance and, after stirring, the mixture is left standing at room temperature for 60 min. The mixture is washed three times with wash, HRP-labeled OVA is added, and the mixture is left standing at room temperature for 30 min. The mixture is washed three times with wash, a substrate solution is added, and the mixture is left standing in dark at room temperature for 30 min. A reaction quenching liquid is added, the mixture is stirred, and the absorbance (OD Value=450 nm) is immediately measured.\nThis test was performed in the same manner as in Example 3 except that N^2-hexadecanoyl-L-arginine (SZ61), N-hexadecanoylagmatine (SZ62), N^2-hexadecanoyl-L-arginine methyl ester hydrochloride (SZ63), N^2-octadecanoyl-L-glutamine tert-butyl ester (SZ64), and N^2-octadecanoyl-L-glutamine (SZ65) were used.\nThis test was performed in the same manner as in Example 6 except that N-hexadecanoylagmatine (SZ62), N^2-octadecanoyl-L-glutamine tert-butyl ester (SZ64), N-docosanoyl-L-leucine methyl ester (SZ70), and N-docosanoyl-L-phenylalanine methyl ester (SZ71) were used and a positive control adjuvant Addavax™ (InvivoGen) administration group was formed.\n(§1) The allergy inducing activity test was performed in the same manner as in Example 3 except that Addavax™, N-(2-octadecyleicosanoyl)-L-leucine methyl ester (SZ86), N-hexadecanoyl-L-leucinamide (SZ90), N^2-hexadecanoyl-N^1,N^1-diethyl-L-leucinamide (SZ92), N^2-hexadecanoyl-L-arginine hexyl ester hydrochloride (SZ99) and N^2-docosanoyl-N^1,N^1-diethyl-L-glutamic acid 1-amide (SZ106) were used.\nas §1, with “N-hexadecanoyl-L-leucine” for “N^2-hexadecanoyl-L-arginine”, “(SZ97),” for “hydrochloride (SZ99) and”, “(SZ106) and N-docosanoylagmatine hydrochloride (SZ108)” for “(SZ106)”\n8-Week-old female BALB/c mice were divided into groups (N=6), and each group was primarily immunized by dorsal-subcutaneous administration of (1) ovalbumin (OVA) (5 μg) dissolved in saline as an antigen (OVA single administration group), (2) OVA (10 μg) and aluminum hydroxide salt dissolved in saline (Alum administration group), (3) OVA 10 μg and Addavax™ (mixed with saline at 1:1) dissolved in saline (Addavax™ administration group), (4) OVA 10 μg and CpG 5 μg dissolved in saline (CpG administration group), (5) OVA 10 μg and MPL 5 μg dissolved in saline (MPL administration group), (6) OVA (5 μg) and SZ62 (0.256 μmol) dissolved or dispersed in 5% αCD-added saline (SZ62 administration group), (7) OVA (5 μg), SZ62 (0.256 μmol) and CpG 5 μg dissolved or dispersed in 5% αCD-added saline (SZ62+CpG administration group), (8) OVA 10 μg, Addavax™ (mixed with saline at 1:1) and CpG 5 μg dissolved in saline (Addavax™+CpG administration group), (9) OVA (5 μg), SZ62 (0.256 μmol) and MPL 5 μg dissolved or dispersed in 5% αCD-added saline (SZ62+MPL administration group), (10) OVA (10 μg), aluminum hydroxide salt (Alum) and MPL 5 μg dissolved in saline (Alum+MPL administration group), each per mouse. One week later, the secondary immunization was carried out by dorsal-subcutaneous administration of solutions or dispersions similar to those of the above-mentioned (1) to (10) again."}, "[2]": {"test_system": "anti-OVA-specific IgG1 subclass antibody", "assay": "Adjuvant activity: anti-OVA-specific IgG1 subclass antibody in serum after secondary immunization (Examples 1, 5, 7, 8; ELISA absorbance)", "type": "in vivo, BALB/c mice", "experimental": "Two weeks from the secondary immunization, the whole blood was extracted under anesthesia, and the obtained serum sample was measured for anti-OVA-specific IgG1 subclass antibody.\nA method for measurement of the anti-OVA-specific IgG1 subclass antibody in Example 1, and the following Examples 5, 7 and 8 is as follows.\nMeasurement Method of anti-OVA-specific IgG1 Subclass Antibody\nTo a 96 well plate was added 5 μg/ml OVA at 100 μl/well, and the mixture was incubated at 4° C. overnight. After incubation, the mixture was washed three times with 200 μl of PBS-T (PBS+0.05%(v/v) Tween 20) per well, and blocked with 100 μl of 5% FCS/PBS solution per well at room temperature for 1 to 2 hr. Thereafter, the mixture was washed three times with PBS-T (200 μl/well), a diluted serum sample (100 μl/well) or the same amount of 5% FCS/PBS solution as a control was added, and the mixture was incubated at 37° C. for 1 hr. Thereafter, the mixture was washed five times with PBS-T (200 μl/well), a diluted biotinylated anti-mouse IgG1 antibody (100 μl/well) was added, and the mixture was incubated at 37° C. for 45 min. Thereafter, the mixture was washed five times with PBS-T (200 μl/well), a diluted anti-biotin-HRP antibody was added (100 μl/well), and the mixture was incubated at 37° C. for another 30 min. Thereafter, the mixture was washed five times with PBS-T (200 μl/well), TMB substrate solution was added (100 μl/well), and the mixture was incubated at room temperature for 10 to 15 min. Thereafter, a reaction quenching liquid (2N sulfuric acid solution) was added (50 μl/well) to discontinue a color developing reaction, and the absorbance (OD Value=450 nm) was measured by a microplate reader."}, "[3]": {"details": "Example 5, same manner as Example 1"}, "[4]": {"details": "Example 8, same manner as Example 7"}}, "data": [{"compound": "CCCCCCCCCCCCCCCC(=O)N[C@@H](CCCNC(=N)N)C(=O)O", "note": "[SZ61, N^2-hexadecanoyl-L-arginine]", "values": [{"measurement": "allergy inducing activity as compared to aluminum hydroxide gel adjuvant", "setting": "[1]", "value": "lower allergy inducing activity"}, {"measurement": "anti-OVA-specific IgE antibody production as compared to the OVA single administration group", "setting": "[1]", "value": "a significant increase in the anti-OVA-specific IgE antibody production was not observed"}]}, {"compound": "Alum [reference compound]", "values": [{"measurement": "anti-OVA-specific IgE antibody production as compared to the OVA single administration group", "setting": "[1]", "value": "significantly increased"}]}, {"compound": "CCCCCCCCCCCCCCCCCC(=O)N[C@@H](CCC(N)=O)C(=O)OC(C)(C)C", "note": "[SZ64, N^2-octadecanoyl-L-glutamine tert-butyl ester]", "values": [{"measurement": "adjuvant activity (IgG1) compared with Alum", "setting": "[2]; Example 5", "value": "equivalent to or not less than that of Alum"}, {"measurement": "anti-OVA-specific IgG1 subclass antibody production as compared to the OVA single administration group", "setting": "[2]; [3]", "value": "significantly increased"}, {"measurement": "adjuvant activity (IgG1) compared with Alum", "setting": "[2]; Example 8", "value": "equivalent to or not less than that of Alum"}, {"measurement": "anti-OVA-specific IgG1 subclass antibody production as compared to the OVA single administration group", "setting": "[2]; [4]", "value": "significantly increased"}, {"measurement": "allergy inducing activity as compared to aluminum hydroxide gel adjuvant", "setting": "[1]", "value": "lower allergy inducing activity"}, {"measurement": "allergy inducing activity as compared to aluminum hydroxide gel adjuvant and Addavax", "setting": "[1]", "value": "lower allergy inducing activity"}, {"measurement": "anti-OVA-specific IgE antibody production as compared to the OVA single administration group", "setting": "[1]", "value": "a significant increase in the anti-OVA-specific IgE antibody production was not observed"}]}, {"compound": "CCCCCCCCCCCCCCCCCCCCCC(=O)N[C@@H](Cc1ccccc1)C(=O)OC", "note": "[SZ71, N-docosanoyl-L-phenylalanine methyl ester]", "values": [{"measurement": "adjuvant activity (IgG1) compared with Alum", "setting": "[2]; Example 7", "value": "equivalent to or not less than that of Alum"}, {"measurement": "anti-OVA-specific IgG1 subclass antibody production compared with Alum", "setting": "[2]; Example 7", "value": "equivalent to or not less than that of Alum"}, {"measurement": "anti-OVA-specific IgG1 subclass antibody production as compared to the OVA single administration group", "setting": "[2]; Example 7, same manner as Example 1, plus Addavax group", "value": "a significant difference was not found"}, {"measurement": "allergy inducing activity as compared to aluminum hydroxide gel adjuvant and Addavax", "setting": "[1]", "value": "lower allergy inducing activity"}]}, {"compound": "CCCCCCCCCCCCCCCC(=O)N[C@@H](CCCNC(=N)N)C(=O)OC.Cl", "note": "[SZ63, N^2-hexadecanoyl-L-arginine methyl ester hydrochloride]", "values": [{"measurement": "adjuvant activity (IgG1) compared with Alum", "setting": "[2]; Example 5", "value": "equivalent to or not less than that of Alum"}, {"measurement": "anti-OVA-specific IgG1 subclass antibody production as compared to the OVA single administration group", "setting": "[2]; [3]", "value": "significantly increased"}, {"measurement": "adjuvant activity (IgG1) compared with Alum", "setting": "[2]; Example 8", "value": "equivalent to or not less than that of Alum"}, {"measurement": "anti-OVA-specific IgG1 subclass antibody production as compared to the OVA single administration group", "setting": "[2]; [4]", "value": "significantly increased"}, {"measurement": "allergy inducing activity as compared to aluminum hydroxide gel adjuvant", "setting": "[1]", "value": "lower allergy inducing activity"}, {"measurement": "anti-OVA-specific IgE antibody production as compared to the OVA single administration group", "setting": "[1]", "value": "a significant increase in the anti-OVA-specific IgE antibody production was not observed"}]}, {"compound": "CCCCCCCCCCCCCCCCCC(=O)N[C@@H](CCC(N)=O)C(=O)O", "note": "[SZ65, N^2-octadecanoyl-L-glutamine]", "values": [{"measurement": "adjuvant activity (IgG1) compared with Alum", "setting": "[2]; Example 5", "value": "equivalent to or not less than that of Alum"}, {"measurement": "anti-OVA-specific IgG1 subclass antibody production as compared to the OVA single administration group", "setting": "[2]; [3]", "value": "significantly increased"}, {"measurement": "allergy inducing activity as compared to aluminum hydroxide gel adjuvant", "setting": "[1]", "value": "lower allergy inducing activity"}, {"measurement": "anti-OVA-specific IgE antibody production as compared to the OVA single administration group", "setting": "[1]", "value": "a significant increase in the anti-OVA-specific IgE antibody production was not observed"}]}]}
